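48-hour exposure; five concentrations; linearly interpolated endpoints. GI50 marks 50% less growth.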 Activity calls are given as the source filed them. No stated cut-off is given here; in the data, active = GI50 up to about 1.1 µM and inactive = higher.

Results on seven compounds are retold here after ChEMBL document CHEMBL1201862, “PubChem BioAssay data set” (2004).

Some test systems named below: 786-0; MDA-MB-231; SK-MEL-2; BT-549; NCI-H522; OVCAR-5; RPMI-8226; HCT-15; KM12; A549; MCF7; EKVX; MOLT-4; MDA-N; NCI/ADR-RES; Malme-3M; Hs-578T; HOP-62; U-251; NCI-H23.
Common to all, as to assay: inhibition of tumour cell growth, NCI panel, 48 h

Consider `O=C1/C(=C\c2ccccc2)c2ccccc2N1Cc1ccccc1`, for which the GI50 with 786-0 was 7.01 µM (inactive); with MDA-MB-231, 6.89 µM (inactive); in the assay with SK-MEL-2 it was 12.2 µM (inactive); in the assay with BT-549 it was 3.61 µM (inactive); in the assay on NCI-H522, 10.1 µM (inactive); in the assay with OVCAR-5 it was 10.4 µM (inactive). The GI50 with RPMI-8226 is 2.74 µM (inactive); with HCT-15, 9.46 µM; in the assay with KM12, 6.04 µM (inactive); with A549, 11.6 µM (inactive); in the assay with MCF7, 3.45 µM (inactive); in the assay with EKVX, 12.5 µM (inactive). The GI50 with MOLT-4 was 2.67 µM (inactive); in the assay on MDA-N, 5.18 µM (inactive); in the assay on NCI/ADR-RES, 10.6 µM (inactive); with Malme-3M, 6.92 µM (inactive); with Hs-578T it was 5.14 µM (inactive); with HOP-62, 13.1 µM (inactive). Also, the figures for the GI50 in the assay with U-251 and with NCI-H23 were 8.69 µM (inactive) and 10.7 µM (inactive), respectively.

Take `CCOCC(=O)N[C@H]1CCc2cc(OC(=O)COCC)c(OC)c(OC)c2-c2ccc(SC)c(=O)cc21`: the GI50 in the assay on 786-0 is 0.036 µM (active); with MDA-MB-231, 0.0274 µM (active); with SK-MEL-2, 0.019 µM (active); with BT-549 it was 0.0752 µM (active); with NCI-H522 it was 0.0151 µM (active); in the assay with OVCAR-5, 0.604 µM (active). Besides, the GI50 with RPMI-8226 was 0.0299 µM (active); in the assay on HCT-15, 0.0551 µM; in the assay on KM12, 0.00708 µM (active); in the assay on A549, 0.0355 µM (active); in the assay with MCF7, 0.00686 µM (active); in the assay on EKVX it was 0.0571 µM (active). For the same compound, the GI50 was 0.0269 µM (active) with MOLT-4; 0.0022 µM (active) in the assay on MDA-N; 1.87 µM (inactive) in the assay on NCI/ADR-RES; 0.0138 µM (active) with Malme-3M; 0.0122 µM (active) with Hs-578T; 0.0533 µM (active) with HOP-62. The GI50 in the assay on U-251 was 0.0275 µM (active); in the assay on NCI-H23, 0.0273 µM (active).

Turning to `CC(NC(=O)C(N)CC(=O)O)NC(=O)C1CCC1` (stereo not given), the GI50 with 786-0, with MDA-MB-231, in the assay with SK-MEL-2, with BT-549, in the assay on NCI-H522 and with OVCAR-5 was > 100 µM (inactive) in each case. The GI50 in the assay on RPMI-8226 was > 100 µM (inactive); with HCT-15 it was more than 100 µM; with KM12, > 100 µM (inactive); in the assay on A549 it was > 100 µM (inactive); in the assay on MCF7, > 100 µM (inactive); in the assay with EKVX, > 100 µM (inactive). The GI50 with MOLT-4, with MDA-N, in the assay on NCI/ADR-RES, with Malme-3M, in the assay with Hs-578T and with HOP-62 was > 100 µM (inactive) in each case. The GI50 with U-251 and in the assay with NCI-H23 was > 100 µM (inactive) throughout.

Turning to `COc1ccc(OC)c(C2CCc3nc4nc(N)nc(N)c4cc3C2)c1` (stereo not given), the GI50 is 2.69 µM (inactive) in the assay on 786-0; 2.35 µM (inactive) with MDA-MB-231; 1.97 µM (inactive) with SK-MEL-2; 6.9 µM (inactive) in the assay with BT-549; 2.19 µM (inactive) with NCI-H522; 9.35 µM (inactive) in the assay with OVCAR-5. Also, the GI50 is 5.78 µM (inactive) in the assay on RPMI-8226; 14.1 µM in the assay with HCT-15; 2.29 µM (inactive) in the assay with KM12; 14.7 µM (inactive) with A549; 1.89 µM (inactive) with MCF7; 13.4 µM (inactive) with EKVX. The GI50 in the assay on MOLT-4 was 2.12 µM (inactive); with MDA-N it was 2.13 µM (inactive); in the assay on NCI/ADR-RES it was > 100 µM (inactive); with Malme-3M it was 1.92 µM (inactive); in the assay with Hs-578T, 3.75 µM (inactive); in the assay on HOP-62, 2.13 µM (inactive). In addition, the GI50 was 1.76 µM (inactive) in the assay on U-251 and 18.5 µM (inactive) in the assay with NCI-H23.

On to `C[O+]=C1C=CC(=C2SC(c3ccccc3)(c3ccccc3)c3ccccc32)C=C1.[O-][Cl+3]([O-])([O-])[O-]`, for which the GI50 is 17.2 µM (inactive) in the assay with 786-0; 18.5 µM (inactive) in the assay with MDA-MB-231; 15.6 µM (inactive) in the assay on SK-MEL-2; 24.7 µM (inactive) with BT-549; 20.7 µM (inactive) in the assay on NCI-H522; 19.5 µM (inactive) in the assay with OVCAR-5. For the same compound, the GI50 is 17.5 µM (inactive) in the assay with RPMI-8226; 10.9 µM in the assay on HCT-15; 15.7 µM (inactive) in the assay with KM12; 22.5 µM (inactive) in the assay with A549; 25.4 µM (inactive) in the assay with MCF7; 17.8 µM (inactive) with EKVX. The GI50 with MOLT-4 was 13.1 µM (inactive); with MDA-N, 21.1 µM (inactive); in the assay with NCI/ADR-RES, 30.1 µM (inactive); with Malme-3M, 18.8 µM (inactive); with Hs-578T, 18.6 µM (inactive); in the assay with HOP-62 it was 28 µM (inactive). In addition, the GI50 with U-251 is 22.6 µM (inactive); in the assay with NCI-H23, 21.1 µM (inactive).

Regarding `O=C1c2ccccc2-c2nnc(-c3ccc(Cl)cc3)cc21`, the GI50 in the assay with 786-0, in the assay on MDA-MB-231, in the assay with SK-MEL-2, with BT-549, with NCI-H522 and in the assay on OVCAR-5 was > 10 µM (inactive) throughout. For the same compound, the GI50 in the assay on RPMI-8226 was > 10 µM (inactive); in the assay on HCT-15, more than 10 µM; in the assay with KM12 it was > 10 µM (inactive); with A549 it was > 10 µM (inactive); with MCF7, > 10 µM (inactive); with EKVX, > 10 µM (inactive). The GI50 in the assay on MOLT-4, with MDA-N, with NCI/ADR-RES, in the assay on Malme-3M, with Hs-578T and in the assay on HOP-62 was > 10 µM (inactive) each time. Also, the GI50 in the assay on U-251 and in the assay with NCI-H23 was > 10 µM (inactive) each time.

With `CCSC(=O)N1c2ccc(OC)cc2C=CC1C#N` (stereo not given), the GI50 was 0.00344 µM (active) with 786-0; 0.00589 µM (active) in the assay on MDA-MB-231; < 0.01 µM (active) in the assay on SK-MEL-2; < 0.01 µM (active) in the assay with BT-549; 0.00698 µM (active) in the assay on NCI-H522; < 0.00993 µM (active) in the assay on OVCAR-5. Further, the GI50 in the assay with RPMI-8226 was 0.00273 µM (active); with HCT-15, 0.00734 µM; in the assay with KM12 it was 0.00449 µM (active); with A549, 0.00565 µM (active); in the assay with MCF7, 0.00883 µM (active); in the assay with EKVX it was 0.392 µM (active). Further, the GI50 in the assay on MOLT-4 is 0.00345 µM (active); in the assay with MDA-N, 0.00306 µM (active); in the assay with NCI/ADR-RES, 0.00131 µM (active); with Malme-3M, 0.1 µM (active); with Hs-578T, 0.36 µM (active); in the assay on HOP-62, 0.00841 µM (active). Moreover, the GI50 in the assay with U-251 is 0.00403 µM (active); with NCI-H23, 0.00509 µM (active).
